The source made the active and inactive calls. The rule behind the calls is not given here.
Columns and labels:
[1] = molecular target: T1, Bile acid receptor (Homo sapiens) (UniProt Q96RI1); test: Antagonist activity at human FXR in HepG2 cells assessed as reversal of CDCA-induced reduction in CYP7A1 mRNA expression level at 0.1 to 1 uM dosed after 24 hrs starvation followed by CDCA addition and measured after 18 hrs by RT-PCR analysis
T1 sequence (whole entry): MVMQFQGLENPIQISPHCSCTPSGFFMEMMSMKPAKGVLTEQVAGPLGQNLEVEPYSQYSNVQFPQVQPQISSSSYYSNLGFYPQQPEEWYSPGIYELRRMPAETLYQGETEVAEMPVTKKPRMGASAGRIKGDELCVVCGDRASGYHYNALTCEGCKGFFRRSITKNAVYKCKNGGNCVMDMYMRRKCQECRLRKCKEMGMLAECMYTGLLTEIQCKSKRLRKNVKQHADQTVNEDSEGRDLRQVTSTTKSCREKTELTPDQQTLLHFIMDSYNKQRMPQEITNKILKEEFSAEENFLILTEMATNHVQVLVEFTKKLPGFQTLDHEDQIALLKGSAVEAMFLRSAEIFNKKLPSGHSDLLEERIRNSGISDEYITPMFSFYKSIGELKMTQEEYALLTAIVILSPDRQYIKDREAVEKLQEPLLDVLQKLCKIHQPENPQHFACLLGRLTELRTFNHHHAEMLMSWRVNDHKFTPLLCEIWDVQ

[2] = Half life in rat liver microsomes at 1 uM incubated for 2 hrs by LC-MS/MS analysis

- Activity [1]: Active
- half-life at 1 µM [2]: 1.86 h
SMILES: c1ccc2cc(-c3noc(C4CCNCC4)n3)ccc2c1

Reference: ChEMBL document CHEMBL4433214, “Investigation around the Oxadiazole Core in the Discovery of a New Chemotype of Potent and Selective FXR Antagonists” (ACS Med Chem Lett, 2019)
